Results taken from patent US20240390487A1, “TLR AGONISTS FOR REDUCING ACTIVATION-INDUCED PD-1 EXPRESSION ON T CELLS AND METHODS OF USE” (WISCONSIN ALUMNI RESEARCH FOUNDATION, priority 2016, published 2024).

How the values were obtained:
[1] = tested on: ovalbumin-expressing E.G7 cells; experiment: Ovalbumin tumor treatment study: peptide immunization with or without TLR agonist; assay type: in vivo, mice; settings: FT peptide relative to high-affinity OVA peptide
Protocol: OT-1 T cells were then adoptively transferred and the following day were immunized with SIINFEKL (SEQ ID NO:1, OVA) or FT peptide (SEQ ID NO:2) alone or with TLR1/2 or TLR7 agonist. Other groups were immunized with 100 μg anti-PD-1 antibody delivered the following day. […] This anti-tumor effect was not observed with TLR agonist treatment alone (FIG. 22). […] This was associated with a reduced PD-1 (but not LAG-3) expression on CD8+ TIL (FIG. 17C).
Ovalbumin tumor treatment studies: 10^6 ovalbumin-expressing E.G7 PD-L 1^high cells were injected subcutaneously into 6- to 10-week old female B6 mice. Ten to fifteen days post injection, when tumors were palpable and similarly sized (˜0.2 cm^3), 2×10^6 naïve OT-1 CD8+ T cells were adoptively transferred to each mouse as described above. The following day mice were immunized subcutaneously with 100 μg of an individual peptide (SIINFEKL (SEQ ID NO:1) or variant, LifeTein) in PBS, with or without TLR agonists as described above. In the group receiving PD-1 blocking antibody, 100 μg of antibody (clone G4 (52)) was injected intraperitoneally on the day following vaccination. Tumor volume was measured over time using calipers and calculated in cubic centimeters according to the following formula: (π/6)*(long axis)*(short axis)^2. Tumors obtained at necropsy were digested in media containing 1 mg/mL collagenase and 20 μg/mL DNAse I (Sigma, St. Louis, MO) for 1-2 hours at 37° C. and passed through a 100-μm screen to obtain a single-cell suspension. Tumor cells and tumor-infiltrating lymphocytes (TILs) were stained and analyzed by flow cytometry using the following panel: CD3-FITC (BD 555274), CD4-BUV395 (BD 563790), CD8-BUV805 (BD 564920), LAG-3-BV711 (BD 563179), PD1-PECF594 (BD 562523), PDL1-PECy7 (BD 558017), 41BB-PerCPeF710) (eBioscience 46-1371-82), CD45-BV510 (BD 563891) and Live/Dead Ghost dye 780 (Tonbo, San Diego, CA 13-0865-T100) or corresponding fluorescently labeled IgG controls.

[2] = tested on: OT-1 transgenic splenocytes; experiment: In vitro stimulation of OT-1 splenocytes with peptide antigen in the presence of TLR agonists, surface markers by flow cytometry; assay type: cell-based, mice; design: key to 4-1BB / PD-1 / LAG3 / CD160 / CD244.2 / BTLA / VISTA: “+” means increase; “−” means decrease; “=” means no change; “=/+” or “=/−” means the change is there but not significant; “=/+” or “=/−” means the change is there but not significant; settings: for 4-1BB / LAG3 / PD-1: OT-1 splenocytes, high affinity antigen plus TLR agonist, versus antigen alone
Protocol: T cell activation was measured by the levels of marker 4-1BB (a/k/a CD137, a member of the TNF receptor superfamily). The level of PD-1 expression was also assessed in these cells (FIG. 1B).
There was no difference in LAG3 expression between the control cells and cells treated with any of the assayed TLR agonists.
OT-1 transgenic splenocytes were treated with high affinity antigen in combination with Pam3CSK4 (TLR1 and 2 agonist), Gardiquimod (TLR7 agonist) or no TLR agonist and the levels of different checkpoint markers or T cell stimulation (measured by 4-1BB, FIG. 5) were assayed. The checkpoint markers BTLA (FIG. 6), VISTA (FIG. 7), CD160 (FIG. 8) and CD244.2 (FIG. 9) were assayed.
TLR stimulation at the time of T-cell activation in vitro affects expression of PD-1. Given that CpG-rich DNA is a TLR9 agonist and Lm is a TLR2 agonist, we questioned whether TLR stimulation with different ligands could similarly affect expression of different T-cell checkpoint inhibitors. […] OT-1 splenocytes were stimulated in vitro with peptides of different affinity for MHC class I (high-affinity SIINFEKL peptide (SEQ ID NO:1, OVA), moderate-affinity SIINTEKL peptide (SEQ ID NO:2, FT), or low-affinity SIINFEKP peptide (SEQ ID NO:7, LP)), alone or in the presence of different TLR ligands (TLR 1/2 (Pam3CSK4), TLR 3 (Poly I:C), TLR 4 (MPLAs), TLR 7 (Gardiquimod), TLR 7/8 (R848), or TLR 9 (ODN1826)). […] Similarly, LAG-3 expression increased by day 3, but was not affected by the presence of different TLR ligands. […] This reduction in PD-1 expression was observed most with the high-affinity SIINFEKL (SEQ ID NO:1) epitope, but also observed following activation with lower affinity epitopes. Given these findings, we evaluated expression of multiple other T-cell checkpoint molecules following T-cell activation in the presence of TLR ligands. […] Cytotoxic T-lymphocyte-associated protein 4 (CTLA-4) expression, however, was increased in the presence of TLR1/2 agonist. Similar results were found activating OT-1 cells with the lower affinity FT (SIINTEKL peptide (SEQ ID NO:2)), LP (SIINFEKP peptide (SEQ ID NO:7), or LY (SIINFEKY, SEQ ID NO:8) epitopes (FIG. 19).
In vitro T-cell stimulation: Spleens were collected from OT-1 mice, processed through a mesh screen, and splenocytes were isolated by centrifugation after red blood cell osmotic lysis with ammonium chloride/[…] lysis buffer (0.15 M NH4Cl, 10 mM KHCO3, 0.1 mM EDTA). Splenocytes were cultured at 2×10^6/mL in RPMI 1640 medium supplemented with L-glutamine, 10% fetal calf serum (FCS), 200 U/mL penicillin/streptomycin, 1% sodium pyruvate, 1% HEPES, 50 μM β-MeOH, and 2 μg/mL of the designated peptide. TLR agonists were all purchased from InvivoGen (San Diego, CA) and added one hour before peptides at the following optimal concentrations based on preliminary studies and previously reported results: 300 ng/ml Pam3CSK4, 10 μg/mL Poly(I:C) HMW, 10 μg/ml MPLAs, 3 μg/ml Gardiquimod, 10 μg/ml R848, 5 μM ODN 1826. At the time points indicated, cells were stained, fixed for 15 min at 4° C. in cytofix (BD Biosciences (BD), San Jose, CA; 554655), and frozen in FCS+10% DMSO. After all time points were collected, cells from all times were thawed, rinsed and resuspended in PBS+3% FCS+1 mM EDTA and analyzed by flow cytometry. Cells were stained for 30 min at 4° C. in a 1:4 dilution of brilliant stain buffer (BD 563794) in PBS+3% FCS+1 mM EDTA. In order to assess co-stimulation, blocking antibodies for CD80 (0.6 μg/mL), CD86 (0.25 μg/mL) or OX40L (0.6 μg/mL) were added 1 hour prior to antigen.

OT-1 CD8+ T cells = experiment: Adoptive transfer of OT-1 T cells and immunization of C57BL/6 mice, marker expression on splenic OT-1 T cells; assay type: in vivo
Excerpt: Vaccine type can affect expression of T-cell checkpoint molecules on activated CD8+ T cells: This Example used an ovalbumin vaccination model. OT-1 cells were adoptively transferred to naïve C57BL/6 mice. The day after transfer, mice were immunized once with (a) DNA encoding ovalbumin, (b) Listeria monocytogenes (Lm) encoding ovalbumin, (c) OVA257-264 peptide (SIINFEKL (SEQ ID NO:1)), (d) SIINFEKL peptide (SEQ ID NO:1) with DNA vector, (e) DNA vector alone, (f) Lm encoding control vector with no antigen, or (g) NS (non-specific) peptide. Splenocytes were collected the day after vaccination for expression of cell surface markers on antigen-specific OT-1 cells. […] LAG-3 expression was not reduced in the presence of Lm co-administered with peptide.
TLR stimulation at the time of T-cell activation reduced expression of PD-1 in vivo: To determine whether TLR stimulation at the time of T-cell activation with vaccination elicited a similar reduction in PD-1 in vivo, OT-1 cells were adoptively transferred to naïve C57BL/6 mice as above, and immunized once with OVA or FT peptide (or non-specific peptide) one day later in the presence or absence of a TLR 1/2, TLR7, or TLR9 ligand. Splenocytes were collected from groups up to 14 days after immunization and evaluated for expression of 4-1BB, PD-1 and LAG-3.
Adoptive transfer and immunization of wild type C57BL/6 (B6) mice: OT-1 splenocytes were harvested and CD8+ T cells were isolated as described above. 2×10^6 OT-1 T cells were adoptively transferred into 6- to 10-week old female B6 mice via intraperitoneal injection. The day following transfer, mice were immunized subcutaneously with 100 μg SIINFEKL peptide (SEQ ID NO:1) in PBS without adjuvant, intradermally with 100 μg plasmid encoding full length secreted chicken egg ovalbumin (pCI-neo-sOVA (psOVA), Addgene plasmid #25098, Cambridge, MA), intraperitoneally with 5×10^6 cfu of a Listeria monocytogenes vector encoding ovalbumin (Lm-OVA, gift of JD Sauer), or vehicle or corresponding wild-type Lm or DNA plasmid vector. TLR agonists were co-injected with the vaccine at the following concentrations: 20 μg/mouse Pam3CSK4, 100 μg/mouse Gardiquimod, 50 μg/mouse ODN 1826, or vehicle. Mice were euthanized at the times indicated. Spleens were collected, processed as described above, and T-cell populations analyzed by flow cytometry. Data collected on different days were normalized using rainbow beads (Spherotech, Lake Forest, IL; RFP-30-5A).

## SIINTEKL [FT peptide]
[1]
  anti-tumor response of peptide immunization alone: greater anti-tumor response

## SIINFEKL [SIINFEKL peptide]
[2]; OVA versus FT and LP peptides
  T-cell activation as measured by 4-1BB expression, by peptide affinity: greatest T-cell activation
OT-1 CD8+ T cells; one immunization, splenocytes after vaccination, Lm co-administered with peptide
  LAG-3 expression by vaccine type: significantly increased
OT-1 CD8+ T cells; one immunization, splenocytes after vaccination, Lm or DNA co-administered at the site of peptide immunization
  4-1BB expression by vaccine type: strongest activation
OT-1 CD8+ T cells; one immunization, splenocytes after vaccination, Lm or DNA co-administered with peptide versus peptide
  PD-1 expression by vaccine type: significantly increased

## ODN1826
[2]
  4-1BB: =
  LAG3: =/−
  PD-1: −
[2]; in words, SIINFEKL plus TLR agonist versus antigen alone, up to 4 days
  PD-1 expression on activated T cells: significantly reduced
OT-1 CD8+ T cells; OVA or FT peptide immunization with TLR ligand versus peptide alone, splenocytes up to 14 days, early after T-cell activation
  PD-1 expression on OT-1 CD8+ T cells in vivo: significantly reduced

## CCOCc1nc2c(N)nc3ccccc3c2n1CC(C)(C)O [R848, Resiquimod]
[2]
  4-1BB: =
  LAG3: =
  PD-1: −
